# According to paper PMC7911889 (Viruses, 2021):
# Molecular target: SARS-CoV-2 3CL^pro (Severe acute respiratory syndrome coronavirus 2, UniProt P0DTD1)
# Format: cell-based
SMILES,Effect on luciferase reporter activity / 3CL^pro inhibition (in words),"EC50 (read-out: EC50, SARS-CoV-2 3CLpro luciferase complementation assay) [µM]"
CC(NC(=O)[C@H](Cc1ccccc1)NC(=O)OCc1ccccc1)C(=O)CF (stereo partly drawn) [Z-FA-FMK],clearly inhibited SARS-CoV-2 3CL^pro,26.3
CC(C)(C)NC(=O)N[C@H](C(=O)N1C[C@H]2[C@@H]([C@H]1C(=O)NC(CC1CCC1)C(=O)C(N)=O)C2(C)C)C(C)(C)C (stereo partly drawn) [Boceprevir],clearly inhibited SARS-CoV-2 3CL^pro,–
